From ChEMBL document CHEMBL4002577, “Phenylthiazole antibiotics: A metabolism-guided approach to overcome short duration of action” (Eur J Med Chem, 2017)
Converted amounts (≈) assume the structure as drawn. The source made the active and inactive calls. No cut-off for these calls is given here.

Experiments:
Staphylococcus aureus [1] = experiment: Antibacterial activity against methicillin-resistant Staphylococcus aureus USA300 infected in Balb/c mouse assessed as reduction in bacterial load in wound at 2% administered topically bid for 3 days starting 48 hrs post infection relative to control; assay type: functional
[2] = Half life in human liver microsomes after 10 to 60 mins in absence of NADPH by LC/MS/MS analysis; assay type: ADME, microsome
Staphylococcus aureus [3] = experiment: Antibacterial activity against methicillin-resistant Staphylococcus aureus 2658 RCMB after 18 to 20 hrs by broth microdilution method; assay type: functional
[4] = Drug metabolism in Sprague-Dawley rat urine assessed as CYP450-mediated oxidation at 50 mg/kg administered via oral gavage after 24 hrs by LC/MS/MS analysis; assay type: ADME, organism-based; conditions: in vivo
[5] = Intrinsic clearance in human liver microsomes after 10 to 60 mins in presence of NADPH by LC/MS/MS analysis; assay type: ADME, microsome; conditions: read-out: CLH
[6] = Drug metabolism in Sprague-Dawley rat serum assessed as CYP450-mediated oxidation at 50 mg/kg administered via oral gavage after 6 hrs by LC/MS/MS analysis; assay type: ADME, organism-based; conditions: in vivo
[7] = Half life in human liver microsomes after 10 to 60 mins in presence of NADPH by LC/MS/MS analysis; assay type: ADME, microsome
[8] = Drug metabolism in Sprague-Dawley rat urine assessed as […] at 50 mg/kg administered via oral gavage after 24 hrs by LC/MS/MS analysis; assay type: ADME, organism-based; conditions: in vivo
[9] = Drug metabolism in Sprague-Dawley rat serum assessed as […] at 50 mg/kg administered via oral gavage after 6 hrs by LC/MS/MS analysis; assay type: ADME, organism-based; conditions: in vivo
Staphylococcus aureus [10] = experiment: Bactericidal activity against vancomycin-resistant Staphylococcus aureus VRSA4 clinical isolate after 24 hrs; assay type: functional; conditions: VRSA4, 24 h
Staphylococcus aureus [11] = experiment: Bactericidal activity against methicillin-resistant Staphylococcus aureus USA400 NRS123 clinical isolate after 24 hrs; assay type: functional
Staphylococcus aureus [12] = experiment: Antibacterial activity against methicillin-resistant Staphylococcus aureus USA400 NRS123 clinical isolate infected in mouse J774 cells assessed as reduction of bacterial load at 16 ug/ml after 12 hrs relative to control; assay type: functional; conditions: USA400 NRS123, J774, 12 h
Staphylococcus aureus [13] = experiment: Ratio of MBC to MIC for methicillin/ciprofloxacin/gentamicin/clindamycin-resistant Staphylococcus aureus USA200 NRS383 clinical isolate; assay type: functional
Staphylococcus aureus [14] = experiment: Bactericidal activity against methicillin-resistant Staphylococcus aureus USA400 NRS123 clinical isolate assessed as time required to reduce 3 log10CFU of bacterial load at 4 times MIC by time kill assay; assay type: functional
Staphylococcus aureus [15] = experiment: Ratio of MBC to MIC for methicillin/erythromycin/tetracycline-resistant Staphylococcus aureus USA300 NRS384 clinical isolate; assay type: functional
Staphylococcus aureus [16] = experiment: Antibacterial activity against methicillin/erythromycin/tetracycline-resistant Staphylococcus aureus USA300 NRS384 clinical isolate after 18 to 20 hrs by broth microdilution method; assay type: functional
Staphylococcus aureus [17] = experiment: Antibacterial activity against mupirocin/rifampicin-resistant Staphylococcus aureus RN4220 NRS107 clinical isolate after 18 to 20 hrs by broth microdilution method; assay type: functional
Staphylococcus aureus [18] = experiment: Bactericidal activity against vancomycin-resistant Staphylococcus aureus VRSA10 clinical isolate after 24 hrs; assay type: functional; conditions: VRSA10, 24 h
HaCaT [19] = experiment: Cytotoxicity against human HaCaT cells assessed as decrease in cell viability up to 32 ug/ml after 2 hrs by MTS assay; assay type: cell-based
Staphylococcus aureus [20] = experiment: Potency index, ratio of vancomycin MIC to test compound MIC for methicillin-resistant Staphylococcus aureus 2658 RCMB; assay type: functional
Staphylococcus aureus [21] = experiment: Bactericidal activity against methicillin/erythromycin/tetracycline-resistant Staphylococcus aureus USA300 NRS384 clinical isolate after 24 hrs; assay type: functional
Staphylococcus aureus [22] = experiment: Ratio of MBC to MIC for methicillin-resistant Staphylococcus aureus USA400 NRS123 clinical isolate; assay type: functional
Staphylococcus aureus [23] = experiment: Potentiation of vancomycin-mediated antibacterial activity against vancomycin-resistant Staphylococcus aureus VRSA4 clinical isolate assessed as reduction in vancomycin MIC at 0.5 times MIC preincubated for 30 mins followed by vancomycin addition measured after 20 to 22 hrs relative to control; assay type: functional
Staphylococcus aureus [24] = experiment: Antibacterial activity against vancomycin-resistant Staphylococcus aureus VRSA4 clinical isolate after 18 to 20 hrs by broth microdilution method; assay type: functional
Staphylococcus aureus [25] = experiment: Antibacterial activity against methicillin/ciprofloxacin/gentamicin/clindamycin-resistant Staphylococcus aureus USA200 NRS383 clinical isolate after 18 to 20 hrs by broth microdilution method; assay type: functional
Staphylococcus aureus [26] = experiment: Antibacterial activity against vancomycin-resistant Staphylococcus aureus VRSA10 clinical isolate after 18 to 20 hrs by broth microdilution method; assay type: functional
Staphylococcus aureus [27] = experiment: Potentiation of vancomycin-mediated antibacterial activity against vancomycin-resistant Staphylococcus aureus VRSA10 clinical isolate assessed as reduction in vancomycin MIC at 0.5 times MIC preincubated for 30 mins followed by vancomycin addition measured after 20 to 22 hrs relative to control; assay type: functional
HaCaT [28] = experiment: Cytotoxicity against human HaCaT cells assessed as decrease in cell viability at 64 ug/ml after 2 hrs by MTS assay; assay type: cell-based
Staphylococcus aureus [29] = experiment: Antibacterial activity against methicillin-resistant Staphylococcus aureus USA400 NRS123 clinical isolate after 18 to 20 hrs by broth microdilution method; assay type: functional
Staphylococcus aureus [30] = experiment: Antibacterial activity against methicillin-resistant Staphylococcus aureus USA400 NRS123 clinical isolate infected in mouse J774 cells assessed as reduction of bacterial load at 16 ug/ml after 8 hrs; assay type: functional, cell-based
Staphylococcus aureus [31] = experiment: Bactericidal activity against methicillin/ciprofloxacin/clindamycin-resistant Staphylococcus aureus USA100 NRS382 clinical isolate after 24 hrs; assay type: functional
[32] = Intrinsic clearance in human liver microsomes after 10 to 60 mins in absence of NADPH by LC/MS/MS analysis; assay type: ADME, microsome; conditions: read-out: CLH
Staphylococcus aureus [33] = experiment: Bactericidal activity against methicillin/ciprofloxacin/gentamicin/clindamycin-resistant Staphylococcus aureus USA200 NRS383 clinical isolate after 24 hrs; assay type: functional
J774 = experiment: Cytotoxicity against mouse J774 cells assessed as decrease in cell viability up to 16 ug/ml after 2 hrs by MTS assay; assay type: cell-based; conditions: j774, 2 h
Staphylococcus aureus [34] = experiment: Bactericidal activity against mupirocin/rifampicin-resistant Staphylococcus aureus RN4220 NRS107 clinical isolate after 24 hrs; assay type: functional; conditions: RN4220 NRS107, 24 h
Staphylococcus aureus [35] = experiment: Antibacterial activity against methicillin/ciprofloxacin/clindamycin-resistant Staphylococcus aureus USA100 NRS382 clinical isolate after 18 to 20 hrs by broth microdilution method; assay type: functional
Staphylococcus aureus [36] = experiment: Antibacterial activity against methicillin-resistant Staphylococcus aureus USA400 NRS123 clinical isolate infected in mouse J774 cells assessed as reduction of bacterial load at 16 ug/ml after 24 hrs relative to control; assay type: functional; conditions: USA400 NRS123, J774, 24 h

Structure (SMILES): CCCCc1ccc(-c2nc(C)c(/C(C)=N/NC(=N)N)s2)cc1
- Activity (Staphylococcus aureus [1]): 2.36 deltalog10CFU
- half-life [2]: > 1 h
- MIC (Staphylococcus aureus [3]): 3.75 µg/mL (≈ 11.4 µM)
- Drug metabolism [4]: Metabolite_Detected
- microsomal CLint [5]: 80.3 µL/min/mg
- Drug metabolism [6]: Metabolite_Detected
- half-life [7]: 0.48 h
- Drug metabolism [8]: Metabolite_Detected
- Drug metabolism [9]: Metabolite_Detected

Structure (SMILES): C/C(=N\NC(=N)N)c1sc(-c2ccc(OC3CCCCCC3)cc2)nc1C
- MBC (Staphylococcus aureus [10]): 4 µg/mL (≈ 10.4 µM)
- Activity (Staphylococcus aureus [11]): Dose-dependent effect
- MBC (Staphylococcus aureus [11]; USA400 NRS123, 24 h): 16 µg/mL (≈ 41.5 µM)
- inhibition at 16 µg/mL (Staphylococcus aureus [12]): 48%
- half-life [2]: > 4 h
- Ratio (Staphylococcus aureus [13]): >3
- Time (Staphylococcus aureus [14]): 48 h
- Ratio (Staphylococcus aureus [15]): >3
- MIC (Staphylococcus aureus [16]): 4 µg/mL (≈ 10.4 µM)
- MIC (Staphylococcus aureus [3]): 0.98 µg/mL (≈ 2.54 µM)
- MIC (Staphylococcus aureus [17]): 4 µg/mL (≈ 10.4 µM)
- MBC (Staphylococcus aureus [18]): 4 µg/mL (≈ 10.4 µM)
- Activity (HaCaT [19]): Non-Toxic
- Ratio (Staphylococcus aureus [20]): 1
- Activity (Staphylococcus aureus [21]): Dose-dependent effect
- MBC (Staphylococcus aureus [21]; USA300 NRS384, 24 h): 16 µg/mL (≈ 41.5 µM)
- Ratio (Staphylococcus aureus [22]): >3
- fold change (FC) (Staphylococcus aureus [23]): 16
- microsomal CLint [5]: < 9.6 µL/min/mg
- MIC (Staphylococcus aureus [24]): 4 µg/mL (≈ 10.4 µM)
- MIC (Staphylococcus aureus [25]): 2 µg/mL (≈ 5.19 µM)
- MIC (Staphylococcus aureus [26]): 4 µg/mL (≈ 10.4 µM)
- fold change (FC) (Staphylococcus aureus [27]): 256
- half-life [7]: > 4 h
- Activity (HaCaT [28]): Toxic
- MIC (Staphylococcus aureus [29]): 4 µg/mL (≈ 10.4 µM)
- Activity (Staphylococcus aureus [30]): inactive
- Activity (Staphylococcus aureus [31]): Dose-dependent effect
- MBC (Staphylococcus aureus [31]; USA100 NRS382, 24 h): 4 µg/mL (≈ 10.4 µM)
- microsomal CLint [32]: < 9.6 µL/min/mg
- Activity (Staphylococcus aureus [33]): Dose-dependent effect
- MBC (Staphylococcus aureus [33]; USA200 NRS383, 24 h): 8 µg/mL (≈ 20.8 µM)
- Activity (J774): Non-Toxic
- MBC (Staphylococcus aureus [34]): 8 µg/mL (≈ 20.8 µM)
- MIC (Staphylococcus aureus [35]): 2 µg/mL (≈ 5.19 µM)
- inhibition at 16 µg/mL (Staphylococcus aureus [36]): 70%
